Data taken from PMC12090182, “Repurposing of the RIPK1-Selective Benzo[1,4]oxazepin-4-one Scaffold for the Development of a Type III LIMK1/2 Inhibitor” (ACS Chemical Biology, 2025).

What was measured:
Experiment in all cases: scanMAX KINOMEscan (Eurofins)
Type in all cases: binding
CSNK1G2 = CSNK1G2 (Homo sapiens, UniProt P78368); settings: read-out: Percent Control
From the text: (§1) Supplement cb5c00097_si_002.xlsx, sheet "Table S6 (Eurofins Selectivity)" | column: Percent Control

CAMK1G = CAMK1G (Homo sapiens, UniProt Q96NX5); settings: 1000 nM, read-out: Percent Control
From the text: as §1

MET = MET (Homo sapiens, UniProt P08581); settings: 1000 nM, read-out: Percent Control
From the text: as §1

MAP3K15 = MAP3K15 (Homo sapiens, UniProt Q6ZN16); settings: compound concentration 100 nM; Entrez MAP3K15; read-out: Percent Control
From the text: as §1

TRKA = TRKA (Homo sapiens, UniProt P04629); settings: 1000 nM, read-out: Percent Control
From the text: as §1

EPHA1 = EPHA1 (Homo sapiens, UniProt P21709); settings: 1000 nM, read-out: Percent Control
From the text: as §1

NDR2 = NDR2 (Homo sapiens, UniProt Q9Y2H1); settings: 1000 nM, read-out: Percent Control
From the text: as §1

CAMK1B = CAMK1B (Homo sapiens, UniProt Q6P2M8); settings: 1000 nM, read-out: Percent Control
From the text: as §1

FGFR2 = FGFR2 (Homo sapiens, UniProt P21802); settings: read-out: Percent Control
From the text: as §1

ABL2 = ABL2 (Homo sapiens, UniProt P42684); settings: read-out: Percent Control
From the text: as §1

[1] = target: TYK2(JH2domain-pseudokinase) (Homo sapiens, UniProt P29597); settings: compound concentration 100 nM; Entrez TYK2; read-out: Percent Control
From the text: as §1

EPHA2 = EPHA2 (Homo sapiens, UniProt P29317); settings: read-out: Percent Control
From the text: as §1

INSRR = INSRR (Homo sapiens, UniProt P14616); settings: 1000 nM, read-out: Percent Control
From the text: as §1

ERK5 = ERK5 (Homo sapiens, UniProt Q13164); settings: 1000 nM, read-out: Percent Control
From the text: as §1

INSR = INSR (Homo sapiens, UniProt P06213); settings: 1000 nM, read-out: Percent Control
From the text: as §1

PLK4 = PLK4 (Homo sapiens, UniProt O00444); settings: 1000 nM, read-out: Percent Control
From the text: as §1

SNRK = SNRK (Homo sapiens, UniProt Q9NRH2); settings: compound concentration 100 nM; Entrez SNRK; read-out: Percent Control
From the text: as §1

GSK3A = GSK3A (Homo sapiens, UniProt P49840); settings: 1000 nM, read-out: Percent Control
From the text: as §1

ERBB4 = ERBB4 (Homo sapiens, UniProt Q15303); settings: 1000 nM, read-out: Percent Control
From the text: as §1

MYLK2 = MYLK2 (Homo sapiens, UniProt Q9H1R3); settings: 1000 nM, read-out: Percent Control
From the text: as §1

CSNK1E = CSNK1E (Homo sapiens, UniProt P49674); settings: read-out: Percent Control
From the text: as §1

KIT = KIT (Homo sapiens, UniProt P10721); settings: 1000 nM, read-out: Percent Control
From the text: as §1

MUSK = MUSK (Homo sapiens, UniProt O15146); settings: 1000 nM, read-out: Percent Control
From the text: as §1

CHEK2 = CHEK2 (Homo sapiens, UniProt O96017); settings: read-out: Percent Control
From the text: as §1

HASPIN = HASPIN (Homo sapiens, UniProt Q8TF76); settings: 1000 nM, read-out: Percent Control
From the text: as §1

CSNK2A2 = CSNK2A2 (Homo sapiens, UniProt P19784); settings: 1000 nM, read-out: Percent Control
From the text: as §1

MST3 = MST3 (Homo sapiens, UniProt Q9Y6E0); settings: 1000 nM, read-out: Percent Control
From the text: as §1

FGFR3 = FGFR3 (Homo sapiens, UniProt P22607); settings: read-out: Percent Control
From the text: as §1

ERK3 = ERK3 (Homo sapiens, UniProt Q16659); settings: read-out: Percent Control
From the text: as §1

EIF2AK1 = EIF2AK1 (Homo sapiens, UniProt Q9BQI3); settings: 1000 nM, read-out: Percent Control
From the text: as §1

HIPK3 = HIPK3 (Homo sapiens, UniProt Q9H422); settings: 1000 nM, read-out: Percent Control
From the text: as §1

FGFR4 = FGFR4 (Homo sapiens, UniProt P22455); settings: 1000 nM, read-out: Percent Control
From the text: as §1

CAMKK1 = CAMKK1 (Homo sapiens, UniProt Q8N5S9); settings: 1000 nM, read-out: Percent Control
From the text: as §1

PLK1 = PLK1 (Homo sapiens, UniProt P53350); settings: 1000 nM, read-out: Percent Control
From the text: as §1

CDKL5 = CDKL5 (Homo sapiens, UniProt O76039); settings: read-out: Percent Control
From the text: as §1

CSNK2A1 = CSNK2A1 (Homo sapiens, UniProt P68400); settings: read-out: Percent Control
From the text: as §1

TYRO3 = TYRO3 (Homo sapiens, UniProt Q06418); settings: 1000 nM, read-out: Percent Control
From the text: as §1

CAMKK2 = CAMKK2 (Homo sapiens, UniProt Q96RR4); settings: 1000 nM, read-out: Percent Control
From the text: as §1

FGFR2, sequence (P21802 22-821): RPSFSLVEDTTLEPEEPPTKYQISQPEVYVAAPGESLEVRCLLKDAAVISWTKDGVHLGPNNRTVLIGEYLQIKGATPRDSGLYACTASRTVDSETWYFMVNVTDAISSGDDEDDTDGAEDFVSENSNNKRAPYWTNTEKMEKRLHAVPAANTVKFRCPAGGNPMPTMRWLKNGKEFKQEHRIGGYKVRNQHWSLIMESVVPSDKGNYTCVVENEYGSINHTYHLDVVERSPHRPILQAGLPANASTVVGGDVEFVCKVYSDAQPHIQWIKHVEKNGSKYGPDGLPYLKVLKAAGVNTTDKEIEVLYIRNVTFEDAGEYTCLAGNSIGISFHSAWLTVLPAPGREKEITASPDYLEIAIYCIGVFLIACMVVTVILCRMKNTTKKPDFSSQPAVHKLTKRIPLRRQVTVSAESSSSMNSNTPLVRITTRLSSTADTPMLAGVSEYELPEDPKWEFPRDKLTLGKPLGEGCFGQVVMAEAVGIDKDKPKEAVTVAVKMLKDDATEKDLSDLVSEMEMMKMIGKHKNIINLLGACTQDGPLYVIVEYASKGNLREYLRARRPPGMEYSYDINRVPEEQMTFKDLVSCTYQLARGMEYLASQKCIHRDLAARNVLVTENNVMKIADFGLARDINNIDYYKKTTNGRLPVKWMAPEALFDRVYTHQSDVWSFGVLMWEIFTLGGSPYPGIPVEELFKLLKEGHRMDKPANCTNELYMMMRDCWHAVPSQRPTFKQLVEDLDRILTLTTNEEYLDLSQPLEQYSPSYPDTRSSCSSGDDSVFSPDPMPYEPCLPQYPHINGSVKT
FGFR3, sequence (P22607 23-806): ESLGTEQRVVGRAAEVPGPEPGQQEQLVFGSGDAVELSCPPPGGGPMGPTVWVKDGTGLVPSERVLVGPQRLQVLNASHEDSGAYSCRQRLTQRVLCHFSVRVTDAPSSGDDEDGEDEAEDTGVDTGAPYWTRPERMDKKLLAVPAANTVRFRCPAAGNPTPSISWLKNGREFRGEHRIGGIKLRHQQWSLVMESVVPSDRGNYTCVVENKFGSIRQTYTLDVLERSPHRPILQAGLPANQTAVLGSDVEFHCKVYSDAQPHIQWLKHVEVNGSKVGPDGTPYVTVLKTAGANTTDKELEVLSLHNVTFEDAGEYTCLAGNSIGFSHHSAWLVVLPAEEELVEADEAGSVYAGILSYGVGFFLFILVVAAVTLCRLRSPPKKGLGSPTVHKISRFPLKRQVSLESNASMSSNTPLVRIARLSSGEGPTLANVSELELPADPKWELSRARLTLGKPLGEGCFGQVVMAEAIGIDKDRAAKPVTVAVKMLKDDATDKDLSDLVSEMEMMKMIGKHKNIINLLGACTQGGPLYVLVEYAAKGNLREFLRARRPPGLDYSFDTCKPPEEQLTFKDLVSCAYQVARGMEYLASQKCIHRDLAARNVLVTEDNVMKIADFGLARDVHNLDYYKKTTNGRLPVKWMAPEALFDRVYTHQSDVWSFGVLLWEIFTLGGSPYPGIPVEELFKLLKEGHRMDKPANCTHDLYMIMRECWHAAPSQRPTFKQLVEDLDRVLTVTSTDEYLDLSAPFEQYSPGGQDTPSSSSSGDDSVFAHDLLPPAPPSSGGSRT
CSNK1E, sequence (P49674 whole entry): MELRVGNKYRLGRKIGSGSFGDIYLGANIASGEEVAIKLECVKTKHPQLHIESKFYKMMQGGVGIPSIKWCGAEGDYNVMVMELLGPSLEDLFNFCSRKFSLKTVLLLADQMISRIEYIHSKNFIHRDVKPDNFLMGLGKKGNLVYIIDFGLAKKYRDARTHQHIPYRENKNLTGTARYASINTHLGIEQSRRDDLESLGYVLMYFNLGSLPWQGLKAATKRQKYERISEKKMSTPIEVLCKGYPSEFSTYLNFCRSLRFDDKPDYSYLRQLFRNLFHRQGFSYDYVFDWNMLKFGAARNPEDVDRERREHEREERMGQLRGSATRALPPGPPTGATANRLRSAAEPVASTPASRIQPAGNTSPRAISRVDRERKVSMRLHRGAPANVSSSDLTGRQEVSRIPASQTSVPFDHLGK
ABL2, sequence (P42684 whole entry): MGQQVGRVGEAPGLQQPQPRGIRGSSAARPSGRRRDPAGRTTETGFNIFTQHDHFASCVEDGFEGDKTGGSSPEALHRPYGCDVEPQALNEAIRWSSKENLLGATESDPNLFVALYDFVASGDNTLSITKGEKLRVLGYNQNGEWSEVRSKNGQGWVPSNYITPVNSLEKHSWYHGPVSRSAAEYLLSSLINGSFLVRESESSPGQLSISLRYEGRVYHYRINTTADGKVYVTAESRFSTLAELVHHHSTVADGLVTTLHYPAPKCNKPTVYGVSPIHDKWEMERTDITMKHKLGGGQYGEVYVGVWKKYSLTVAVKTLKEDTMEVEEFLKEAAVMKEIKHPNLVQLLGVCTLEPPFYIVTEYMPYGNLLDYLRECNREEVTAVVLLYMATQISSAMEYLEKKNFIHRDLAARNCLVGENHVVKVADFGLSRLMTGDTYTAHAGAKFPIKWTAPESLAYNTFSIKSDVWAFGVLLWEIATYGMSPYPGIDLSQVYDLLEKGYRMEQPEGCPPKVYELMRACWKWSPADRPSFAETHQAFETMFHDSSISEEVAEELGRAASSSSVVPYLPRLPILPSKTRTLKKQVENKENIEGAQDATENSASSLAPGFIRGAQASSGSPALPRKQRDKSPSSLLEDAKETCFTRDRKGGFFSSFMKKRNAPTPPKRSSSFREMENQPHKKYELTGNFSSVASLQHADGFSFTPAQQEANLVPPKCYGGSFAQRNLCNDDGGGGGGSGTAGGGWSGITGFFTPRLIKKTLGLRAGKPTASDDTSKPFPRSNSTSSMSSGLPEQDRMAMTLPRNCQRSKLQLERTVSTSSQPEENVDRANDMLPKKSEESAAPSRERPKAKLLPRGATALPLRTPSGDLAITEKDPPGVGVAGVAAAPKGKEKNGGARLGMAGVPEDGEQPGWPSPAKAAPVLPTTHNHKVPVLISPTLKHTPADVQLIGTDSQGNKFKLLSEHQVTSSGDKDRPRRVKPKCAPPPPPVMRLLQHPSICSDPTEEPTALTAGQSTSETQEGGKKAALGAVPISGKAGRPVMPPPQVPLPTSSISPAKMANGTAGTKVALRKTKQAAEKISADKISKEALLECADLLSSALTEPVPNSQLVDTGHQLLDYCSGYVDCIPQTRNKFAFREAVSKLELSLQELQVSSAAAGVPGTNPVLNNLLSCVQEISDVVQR
EPHA2, sequence (P29317 24-976): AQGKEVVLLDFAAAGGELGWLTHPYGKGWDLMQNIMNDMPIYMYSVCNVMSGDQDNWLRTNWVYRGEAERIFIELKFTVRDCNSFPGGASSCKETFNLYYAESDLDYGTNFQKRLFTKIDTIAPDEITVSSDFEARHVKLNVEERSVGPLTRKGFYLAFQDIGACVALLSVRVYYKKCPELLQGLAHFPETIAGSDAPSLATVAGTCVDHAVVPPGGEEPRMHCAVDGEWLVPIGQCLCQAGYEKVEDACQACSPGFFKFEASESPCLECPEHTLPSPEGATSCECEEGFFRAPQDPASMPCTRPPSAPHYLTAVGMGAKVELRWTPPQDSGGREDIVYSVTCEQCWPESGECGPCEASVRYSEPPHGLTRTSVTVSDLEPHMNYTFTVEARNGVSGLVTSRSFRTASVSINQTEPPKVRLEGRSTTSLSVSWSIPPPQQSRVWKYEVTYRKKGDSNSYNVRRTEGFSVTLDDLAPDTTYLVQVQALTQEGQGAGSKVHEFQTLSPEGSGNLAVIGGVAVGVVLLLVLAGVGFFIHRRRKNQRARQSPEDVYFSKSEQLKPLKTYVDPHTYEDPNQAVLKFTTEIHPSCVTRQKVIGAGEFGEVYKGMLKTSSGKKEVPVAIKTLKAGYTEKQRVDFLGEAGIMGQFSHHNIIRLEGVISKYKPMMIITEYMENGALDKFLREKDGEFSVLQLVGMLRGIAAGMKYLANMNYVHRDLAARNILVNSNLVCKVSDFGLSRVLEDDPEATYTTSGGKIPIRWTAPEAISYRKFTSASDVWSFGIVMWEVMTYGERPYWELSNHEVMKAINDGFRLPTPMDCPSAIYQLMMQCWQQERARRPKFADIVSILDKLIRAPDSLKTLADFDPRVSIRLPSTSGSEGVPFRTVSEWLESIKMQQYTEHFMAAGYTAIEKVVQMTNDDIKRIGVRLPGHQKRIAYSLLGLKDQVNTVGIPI
CHEK2, sequence (O96017 whole entry): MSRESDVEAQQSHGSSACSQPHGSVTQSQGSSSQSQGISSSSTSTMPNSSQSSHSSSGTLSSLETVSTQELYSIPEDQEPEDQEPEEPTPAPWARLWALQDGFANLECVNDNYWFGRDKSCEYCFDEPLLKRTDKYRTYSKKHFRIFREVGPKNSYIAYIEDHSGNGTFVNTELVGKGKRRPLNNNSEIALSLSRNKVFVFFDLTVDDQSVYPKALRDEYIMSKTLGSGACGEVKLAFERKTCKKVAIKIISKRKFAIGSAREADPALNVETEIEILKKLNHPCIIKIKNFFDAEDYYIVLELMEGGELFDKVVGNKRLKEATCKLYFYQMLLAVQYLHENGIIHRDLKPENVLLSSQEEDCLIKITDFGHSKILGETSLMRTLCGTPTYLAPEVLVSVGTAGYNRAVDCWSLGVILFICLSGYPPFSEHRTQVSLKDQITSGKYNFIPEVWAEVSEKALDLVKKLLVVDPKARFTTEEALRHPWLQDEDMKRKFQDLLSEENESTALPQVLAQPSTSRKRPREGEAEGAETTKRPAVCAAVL
CSNK2A1, sequence (P68400 whole entry): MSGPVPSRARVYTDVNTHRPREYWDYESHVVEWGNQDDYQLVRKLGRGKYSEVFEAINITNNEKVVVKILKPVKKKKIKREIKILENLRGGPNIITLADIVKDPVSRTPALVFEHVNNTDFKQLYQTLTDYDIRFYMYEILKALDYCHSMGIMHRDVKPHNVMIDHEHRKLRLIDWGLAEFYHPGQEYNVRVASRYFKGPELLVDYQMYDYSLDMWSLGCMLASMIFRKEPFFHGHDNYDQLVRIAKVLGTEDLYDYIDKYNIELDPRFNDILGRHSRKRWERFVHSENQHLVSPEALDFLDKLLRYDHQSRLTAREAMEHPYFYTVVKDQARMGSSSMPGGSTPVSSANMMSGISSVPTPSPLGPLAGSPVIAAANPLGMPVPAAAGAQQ

For `CN1C(=O)[C@@H](N2CCc3c(nn(Cc4ccccc4)c3C(N)=O)C2=O)COc2cc(Cl)ccc21` [Compound 10, (S)-2-benzyl-6-(8-chloro-5-methyl-4-oxo-2,3,4,5-tetrahydrobenzo[b][1,4]oxazepin-3-yl)-7-oxo-4,5,6,7-tetrahydro-2H-pyrazolo[3,4-c]pyridine-3-carboxamide], the remaining binding at 1 µM (CSNK1G2; 1000 nM) was 100%, the remaining binding at 0.1 µM (CSNK1G2; compound concentration 100 nM, Entrez CSNK1G2) was 91% and the remaining binding at 1 µM (CAMK1G) was 88%. It also gave a remaining binding at 1 µM (MET) of 94%, a remaining binding at 0.1 µM (MAP3K15) of 71% and a remaining binding at 1 µM (TRKA) of 95%. It also gave a remaining binding at 1 µM (EPHA1) of 87%, a remaining binding at 1 µM (NDR2) of 96% and a remaining binding at 1 µM (CAMK1B) of 91%. It also gave a remaining binding at 1 µM (FGFR2; 1000 nM) of 100%, a remaining binding at 0.1 µM (FGFR2; compound concentration 100 nM, Entrez FGFR2) of 100% and a remaining binding at 1 µM (ABL2; 1000 nM) of 100%. The remaining binding at 0.1 µM (ABL2; compound concentration 100 nM, Entrez ABL2) was 100%, the remaining binding at 0.1 µM [1] was 100% and the remaining binding at 1 µM (EPHA2; 1000 nM) was 100%. For the same compound, the remaining binding at 0.1 µM (EPHA2; compound concentration 100 nM, Entrez EPHA2) was 100%, the remaining binding at 1 µM (INSRR) was 76% and the remaining binding at 1 µM (ERK5) was 86%. It also gave a remaining binding at 1 µM (INSR) of 98%, a remaining binding at 1 µM (PLK4) of 82% and a remaining binding at 0.1 µM (SNRK) of 99%. The remaining binding at 1 µM (GSK3A) was 98%, the remaining binding at 1 µM (ERBB4) was 87% and the remaining binding at 1 µM (MYLK2) was 84%. The remaining binding at 1 µM (CSNK1E; 1000 nM) was 100%, the remaining binding at 0.1 µM (CSNK1E; compound concentration 100 nM, Entrez CSNK1E) was 91% and the remaining binding at 1 µM (KIT) was 89%. For the same compound, the remaining binding at 1 µM (MUSK) was 92%, the remaining binding at 1 µM (CHEK2; 1000 nM) was 100% and the remaining binding at 0.1 µM (CHEK2; compound concentration 100 nM, Entrez CHEK2) was 100%. The remaining binding at 1 µM (HASPIN) was 96%, the remaining binding at 1 µM (CSNK2A2) was 88% and the remaining binding at 1 µM (MST3) was 96%. For the same compound, the remaining binding at 1 µM (FGFR3; 1000 nM) was 100%, the remaining binding at 0.1 µM (FGFR3; compound concentration 100 nM, Entrez FGFR3) was 100% and the remaining binding at 1 µM (ERK3; 1000 nM) was 100%. The remaining binding at 0.1 µM (ERK3; compound concentration 100 nM, Entrez MAPK6) was 87%, the remaining binding at 1 µM (EIF2AK1) was 94% and the remaining binding at 1 µM (HIPK3) was 94%. The remaining binding at 1 µM (FGFR4) was 84%, the remaining binding at 1 µM (CAMKK1) was 74% and the remaining binding at 1 µM (PLK1) was 73%. It also gave a remaining binding at 1 µM (CDKL5; 1000 nM) of 100%, a remaining binding at 0.1 µM (CDKL5; compound concentration 100 nM, Entrez CDKL5) of 100% and a remaining binding at 1 µM (CSNK2A1; 1000 nM) of 100%. The remaining binding at 0.1 µM (CSNK2A1; compound concentration 100 nM, Entrez CSNK2A1) was 82%, the remaining binding at 1 µM (TYRO3) was 97% and the remaining binding at 1 µM (CAMKK2) was 80%.
